Data reported in paper PMC11304990, “Identification of mitochondrial ATP synthase as the cellular target of Ru-polypyridyl-β-carboline complexes by affinity-based protein profiling” (National Science Review, 2024).

Key:
[1] = target: ATPase (mitochondrial ATP synthase); assay: Inhibition of the enzymatic activity of ATPase in vitro; type: biochemical; settings: read-out: Inhibition constant (Ki)
Experimental: (§1) Figure 1. Validation of ATP5F1 as the molecular target of Ru5. (A) Proteins pulled down by streptavidin from A549 cells treated with Ru5a followed by PAL. The cells were treated with Ru5a (50 μM) for 12 h and irradiated with UV light for 20 min. (B) The top five peptides enriched by Ru5a-mediated PAL were identified with the assistance of SILAC-based chemoproteomic studies. H1F0: H1 histone family member 0; HIST4H4: histone cluster 4 H4; HIST3H2BB: histone cluster 3 H2B family member b; ATP5F1E: ATP synthase F1 subunit epsilon; HIST1H2AJ: histone cluster 1 H2A family member J. (C) Pull-down western blotting analysis of ATPase in A549 cells treated with Ru5a. (D) Cellular Ru content in cells treated with Ru5/Ru5a (20 μM, 12 h) measured by ICP-MS. (E) Impact of Ru5/Ru5a (10 μM) on the thermal stability of ATP5F1 measured by CETSA. (F) Impact on the anticancer activities of Ru5/Ru5a against wild type and ATPase knocking down (by siRNA) A549 cells. The relative cellular viability was calculated using the cells without drug treatment in each group as the control group. (G) Inhibition of Ru5/Ru5a on the enzymatic activity of ATPase. (-)-blebbistatin was used as the positive control. (H) Molecular docking of Ru5 with ATPase (PDB: 3ZIA). The red dashes indicate the hydrogen bonds formed between Ru5 and the amino acid residues (SER38 and GLN39). The yellow dashes indicate the hydrophobic interaction between Ru5 and the amino acid residues (ASN15 and GLN19). Data are presented as means ± SD from three independent experiments. TEXT PRINTED IN THE PICTURE: (B) Ru5a: Log2 (fold change) (Ru5a/DMSO): 1.43 (Protein name: H1F0); Log2 (fold change) (Ru5a/DMSO): 1.23 (Protein name: HIST4H4); Log2 (fold change) (Ru5a/DMSO): 1.22 (Protein name: HIST3H2BB); Log2 (fold change) (Ru5a/DMSO): 1.21 (Protein name: ATP5F1E); Log2 (fold change) (Ru5a/DMSO): 1.12 (Protein name: HIST1H2AJ) DOUBTS OF THE COPYIST ABOUT THIS PICTURE: Panel B: the table rows are proteins enriched by Ru5a, not separate substances. […]

[2] = test system: triple negative breast cancer (MDA-MB-231); assay: MTT antiproliferative assay, MDA-MB-231; type: cell-based, human; settings: 72 h
Source text: (§2) Ru3–Ru9 also show a certain selectivity for cancer cells over normal cells, and Ru2, Ru3, Ru5 and Ru9 show higher selectivity index (SI) values than the other complexes.
(§3) PA-BPP was then used to confirm the molecular targets of Ru5 by modifying it with a ‘minimalist’ biorthogonal handle-containing photo-cross-linker. Through our structure–activity relationship analysis and comparison with other ruthenium complexes utilizing phen as the auxiliary ligands with similar coordination structures (using cisplatin as a control), we propose that the β-carboline ligands play an important role in antiproliferative activity. To maintain the binding characteristics of the β-carboline moiety with the targeted biomolecules, we linked the photo-cross-linker to one of the auxiliary ligands of Ru5.

malignant glioma (U87) = assay: MTT antiproliferative assay, U87; type: cell-based, human; settings: 72 h
Source text: as §2, §3

[3] = test system: cervical carcinoma (HeLa); assay: MTT antiproliferative assay, HeLa; type: cell-based, human; settings: 72 h
Source text: as §2, §3

[4] = test system: human lung fibroblast-like (HLF) cells; assay: MTT antiproliferative assay, HLF; type: cell-based; settings: 72 h
Source text: as §2, §3

[5] = test system: cisplatin-resistant A549R; assay: MTT antiproliferative assay, A549R; type: cell-based, human; settings: 72 h
Source text: as §2, §3

[6] = test system: lung adenocarcinoma (A549); assay: MTT antiproliferative assay, A549; type: cell-based, human; settings: for IC50: 72 h; for SI (selectivity index): SI = (IC50 for HLF)/(IC50 for A549)
Source text: as §2, §3

prostate cancer (PC3) = assay: MTT antiproliferative assay, PC3; type: cell-based, human; settings: 72 h
Source text: as §2, §3

A549 xenograft = A549 xenograft nude mice model; type: in vivo; settings: 5 mg kg−1, intratumoral injection every 7 days, 14 days, compared with the control groups
Experimental: Lastly, the in vivo anticancer activity of Ru5 was assessed via a A549 xenograft nude mice model (Fig. 5A). Mice were treated with PBS, cisplatin (5 mg kg^−1) or Ru5 (5 mg kg^−1) for 14 days, during which body weights and tumor volumes were monitored.
Figure 5. […] (A) Schematic illustration of in vivo therapeutic protocol. (B) Graphs of tumor volumes of nude mice after treatment with Ru5 (5 mg kg^−1), cisplatin (5 mg kg^−1) and PBS. The intratumoral injections were performed every 7 days. Data are presented as means ± SD, n = 5. (C) Immunohistochemical analysis of hematoxylin-eosin (H&E) staining in tumor sections from mice with different treatments. Scale bar: 50 μm. (D) Tumors separated from nude mice. (E) The average body weight of the mice in each group during the treatment process. Data are presented as means ± SD, n = 5. (F) H&E staining of the main organs from mice with different treatments. Scale bar: 100 μm.

[7] = Aqueous solubility by concentration-absorbance linearity; type: physicochemical; settings: PBS with 1% DMSO
Source text: Subsequently, the lipophilicity and aqueous solubility of Ru1–Ru9 were investigated.

ATP5F1 = assay: Cellular thermal shift assay (CETSA); type: cell-based; settings: 10 μM
Experimental: as §1, with “GLN39).” for “GLN39). The yellow dashes indicate the hydrophobic interaction between Ru5 and the amino acid residues (ASN15 and GLN19). Data are presented as means ± SD from three independent experiments. TEXT PRINTED IN THE PICTURE: (B) Ru5a: Log2 (fold change) (Ru5a/DMSO): 1.43 (Protein name: H1F0); Log2 (fold change) (Ru5a/DMSO): 1.23 (Protein name: HIST4H4); Log2 (fold change) (Ru5a/DMSO): 1.22 (Protein name: HIST3H2BB); Log2 (fold change) (Ru5a/DMSO): 1.21 (Protein name: ATP5F1E); Log2 (fold change) (Ru5a/DMSO): 1.12 (Protein name: HIST1H2AJ) DOUBTS OF THE COPYIST ABOUT THIS PICTURE: Panel B: the table rows are proteins enriched by Ru5a, not separate substances.”

mitochondria = assay: Subcellular Ru content by ICP-MS; type: cell-based; settings: 20 μM, 12 h
Experimental: as §1, with “GLN39).” for “GLN39). The yellow dashes indicate the hydrophobic interaction between Ru5 and the amino acid residues (ASN15 and GLN19). Data are presented as means ± SD from three independent experiments. TEXT PRINTED IN THE PICTURE: (B) Ru5a: Log2 (fold change) (Ru5a/DMSO): 1.43 (Protein name: H1F0); Log2 (fold change) (Ru5a/DMSO): 1.23 (Protein name: HIST4H4); Log2 (fold change) (Ru5a/DMSO): 1.22 (Protein name: HIST3H2BB); Log2 (fold change) (Ru5a/DMSO): 1.21 (Protein name: ATP5F1E); Log2 (fold change) (Ru5a/DMSO): 1.12 (Protein name: HIST1H2AJ) DOUBTS OF THE COPYIST ABOUT THIS PICTURE: Panel B: the table rows are proteins enriched by Ru5a, not separate substances.”

A549 cells = assay: Anticancer activity in wild type vs ATPase siRNA knockdown cells; type: cell-based, human; settings: compared to wild-type cells
Experimental: as §1, with “GLN39).” for “GLN39). The yellow dashes indicate the hydrophobic interaction between Ru5 and the amino acid residues (ASN15 and GLN19). Data are presented as means ± SD from three independent experiments. TEXT PRINTED IN THE PICTURE: (B) Ru5a: Log2 (fold change) (Ru5a/DMSO): 1.43 (Protein name: H1F0); Log2 (fold change) (Ru5a/DMSO): 1.23 (Protein name: HIST4H4); Log2 (fold change) (Ru5a/DMSO): 1.22 (Protein name: HIST3H2BB); Log2 (fold change) (Ru5a/DMSO): 1.21 (Protein name: ATP5F1E); Log2 (fold change) (Ru5a/DMSO): 1.12 (Protein name: HIST1H2AJ) DOUBTS OF THE COPYIST ABOUT THIS PICTURE: Panel B: the table rows are proteins enriched by Ru5a, not separate substances.”

Cc1ccc2c(c1)C(=O)C1(O)CCN(c3ccccc3)C1=N2 (single isomer, unassigned; (-)) [(-)-blebbistatin, reference compound] gave a Ki [1] of 3.3 ± 0.5 µM.
In the case of N.N.[Cl][Pt][Cl] [Cisplatin, reference compound], the IC50 [2] is reported as 9 ± 0.2 µM, the IC50 (malignant glioma (U87)) is reported as 14.8 ± 1.2 µM and the IC50 [3] is reported as 10.3 ± 1.3 µM. The IC50 [4] was 15.4 ± 1.1 µM, the IC50 [5] was 28.1 ± 4.2 µM and the IC50 [6] was 5.9 ± 1 µM. For the same molecule, the “SI (selectivity index)” value [6] was 2.6, the IC50 (prostate cancer (PC3)) was 13.1 ± 2.7 µM and the “Tumor growth inhibitory rate” value (A549 xenograft) was ~74.4%.
With F[P-](F)(F)(F)(F)F.F[P-](F)(F)(F)(F)F.[Ru+2].c1ccc2nc(-c3nccc4c3[nH]c3ccccc34)ccc2c1.c1cnc2c(c1)ccc1cccnc12.c1cnc2c(c1)ccc1cccnc12 [Ru2] the “Linear relationship between absorbance and concentration up to” value [7] was “at least 100 μM” and the “SI (selectivity index)” value [6] was “higher”.
With F[P-](F)(F)(F)(F)F.F[P-](F)(F)(F)(F)F.[Ru+2].c1ccc(-c2ccnc3c2ccc2c(-c4ccccc4)ccnc23)cc1.c1ccc(-c2ccnc3c2ccc2c(-c4ccccc4)ccnc23)cc1.c1ccc2nc(-c3nccc4c3[nH]c3ccccc34)ccc2c1 [Ru3] the Highest solubility [7] was “lower than 40 μM” and the “SI (selectivity index)” value [6] was “higher”.
With C#CCCC1(CCNC(=O)c2cc3cccnc3c3ncccc23)N=N1.F[P-](F)(F)(F)(F)F.F[P-](F)(F)(F)(F)F.[Ru+2].c1ccc2c(c1)[nH]c1c(-c3ncc[nH]3)nccc12.c1cnc2c(c1)ccc1cccnc12 [Ru5a] the “Thermal stability of ATP5F1” value (ATP5F1) was “increased”, the Ki [1] was 8.1 ± 1.5 µM and the IC50 [2] was 8.4 ± 0.6 µM. It also gave an IC50 (malignant glioma (U87)) of 13.4 ± 0.4 µM, an IC50 [3] of 3.8 ± 0.1 µM and an IC50 [4] of 23.2 ± 0.3 µM. For the same molecule, the IC50 [5] was 4.2 ± 0.6 µM, the “Subcellular location (cellular Ru content)” value (mitochondria) was “mainly located in mitochondria” and the IC50 [6] was 2.5 ± 0.4 µM. For the same molecule, the “SI (selectivity index)” value [6] was 9.3, the “Effect of siRNA-mediated knockdown of ATPase on anticancer effects” value (A549 cells) was “alleviates” and the IC50 (prostate cancer (PC3)) was 3.4 ± 0.6 µM.
In the case of F[P-](F)(F)(F)(F)F.F[P-](F)(F)(F)(F)F.[Ru+2].c1ccc(-c2ccnc3c2ccc2c(-c4ccccc4)ccnc23)cc1.c1ccc(-c2ccnc3c2ccc2c(-c4ccccc4)ccnc23)cc1.c1ccc2c(c1)[nH]c1c(-c3ncc[nH]3)nccc12 [Ru6], the Highest solubility [7] is reported as “lower than 40 μM”.
For F[P-](F)(F)(F)(F)F.F[P-](F)(F)(F)(F)F.[Ru+2].c1ccc2[nH]c(-c3nccc4c3[nH]c3ccccc34)nc2c1.c1cnc2c(c1)ccc1cccnc12.c1cnc2c(c1)ccc1cccnc12 [Ru8], the “Linear relationship between absorbance and concentration up to” value [7] was “at least 100 μM”.
For F[P-](F)(F)(F)(F)F.F[P-](F)(F)(F)(F)F.[Ru+2].c1ccc(-c2ccnc3c2ccc2c(-c4ccccc4)ccnc23)cc1.c1ccc(-c2ccnc3c2ccc2c(-c4ccccc4)ccnc23)cc1.c1ccc2[nH]c(-c3nccc4c3[nH]c3ccccc34)nc2c1 [Ru9], the Highest solubility [7] was “lower than 40 μM” and the “SI (selectivity index)” value [6] was “higher”.
